The values that follow come from ChEMBL document CHEMBL1287739, “A novel ring-expanded product with enhanced tyrosinase inhibitory activity from classical Fe-catalyzed oxidation of rosmarinic acid, a potent antioxidative Lamiaceae polyphenol” (Bioorg Med Chem Lett, 2010).

One assay deals with T1, Tyrosinase (Agaricus bisporus, UniProt O42713).
T1 sequence (O42713 whole entry): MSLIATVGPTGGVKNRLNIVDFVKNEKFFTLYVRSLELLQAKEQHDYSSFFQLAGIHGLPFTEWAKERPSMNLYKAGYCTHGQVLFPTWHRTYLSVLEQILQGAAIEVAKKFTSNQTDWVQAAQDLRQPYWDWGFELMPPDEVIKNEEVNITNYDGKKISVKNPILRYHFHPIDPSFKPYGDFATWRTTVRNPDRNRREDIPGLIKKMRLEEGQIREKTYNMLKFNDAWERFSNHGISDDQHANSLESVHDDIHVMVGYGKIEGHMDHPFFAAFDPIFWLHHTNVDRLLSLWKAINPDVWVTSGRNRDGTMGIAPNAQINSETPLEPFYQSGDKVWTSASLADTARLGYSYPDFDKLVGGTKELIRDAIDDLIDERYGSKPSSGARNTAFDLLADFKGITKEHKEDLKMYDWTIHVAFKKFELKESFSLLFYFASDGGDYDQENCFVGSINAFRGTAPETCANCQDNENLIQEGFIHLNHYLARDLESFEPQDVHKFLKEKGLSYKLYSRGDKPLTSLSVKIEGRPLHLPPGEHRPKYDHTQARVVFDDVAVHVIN
In words: Inhibition of mushroom tyrosinase.

Assay [1] has as its target T2, Tyrosinase (Agaricus bisporus) (UniProt O42713).
T2 sequence (whole entry): T1 sequence (O42713 whole entry)
In words: Inhibition of mushroom tyrosinase at 0.10 mM.

In assay [2] the target is T2, Tyrosinase (Agaricus bisporus). Put plainly: Inhibition of mushroom tyrosinase at 10.0 mM.
For assay [3] the target is unchanged. In words: Inhibition of mushroom tyrosinase at 1.00 mM.
Assay [4] has the same target. Put plainly: Inhibition of mushroom tyrosinase at 3.00 mM.

The compound `CCOc1cc(=O)c(C[C@@H](OC(=O)/C=C/c2ccc(O)c(O)c2)C(=O)O)coc1=O` returned an IC50 against Tyrosinase of 80 µM. The compound further gave an inhibition in assay [1] of 52.5%.

The compound `O=C(/C=C/c1ccc(O)c(O)c1)O[C@H](Cc1ccc(O)c(O)c1)C(=O)O` [ROSMARINIC ACID] came in with an IC50 on Tyrosinase of 250 µM. Further, the inhibition in assay [2] came out at 93.6%; in assay [3] it was 40.7%; in assay [4], 69.8%.

The IC50 is the concentration needed to halve the response being measured. A higher IC50 goes with weaker potency. A word on the inhibition: it is the share of the control response that was lost under treatment.
